32 compounds from publication PMC8286840, “Identifying SARS-CoV-2 antiviral compounds by screening for small molecule inhibitors of Nsp3 papain-like protease” (Biochemical Journal, 2021) can be followed below.

Where a name gives a salt, the structure may show the parent alone. Read-outs that look alike come from different tables or passages of the source.

In test [1] the target is T1, SARS-CoV-2 PLpro (nsp3 1564–1878) (Severe acute respiratory syndrome coronavirus 2, UniProt P0DTD1). As to the kind of experiment: biochemical. Also noted: FRET-quenched peptide (Pro3) cleavage by PLpro, 10 min pre-incubation, slope over 20 min, normalised to no-compound control. Conditions: low concentration screen, read-out: % of control remaining.
The target of test [2] is T1, SARS-CoV-2 PLpro (nsp3 1564–1878). As to the kind of experiment: biochemical. The arrangement: FRET-quenched peptide (Pro3) cleavage by PLpro, 10 min pre-incubation, slope over 20 min, normalised to no-compound control. Conditions: high concentration screen, read-out: % of control remaining.

Regarding `C[n+]1c2ccccc2nc2ccccc21` [5-methylphenazin-5-ium methyl sulfate], in test [1] (Well no.=5668), the remaining activity at 1.25 µM worked out at 91.9%. In addition, the remaining activity at 3.75 µM in test [2] (Well no.=5668) came to 89.8%.
Take `CC(C)c1cccc(C(C)C)c1N1C(=O)c2ccc(O)cc2C1=O` [5HPP-33]: the remaining activity at 1.25 µM in test [1] (Well no.=6085) stood at 101%. Further, in test [2] (Well no.=6085), the remaining activity at 3.75 µM is 99.4%.
Consider `CC(=O)[C@H]1CC[C@H]2[C@@H]3CC[C@H]4CC(=O)CC[C@]4(C)[C@H]3CC[C@]12C` [5a-Pregnane-3,20-dione], for which the remaining activity at 1.25 µM in test [1] (Well no.=7357) worked out at 106%. In addition, the remaining activity at 3.75 µM in test [2] (Well no.=7357) was determined as 105%.
As to `C[C@]12CC[C@@H](O)C[C@@H]1CC[C@@H]1[C@@H]2CC[C@]2(C)[C@@H](O)CC[C@@H]12` [5alpha-Androstane-3alpha,17beta-diol], the remaining activity at 1.25 µM in test [1] (Well no.=244) stood at 98.9%. Also, the remaining activity at 3.75 µM in test [2] (Well no.=244) is 94.8%.
Consider `O=c1[nH]c2ccccc2c2ccccc12` [6(5H)-Phenanthridinone], for which the remaining activity at 1.25 µM in test [1] (Well no.=1305) worked out at 104%. The remaining activity at 3.75 µM in test [2] (Well no.=1305) came to 107%.
In the case of `CCCCCCCCCCC/C=C/CCCCC(=O)O` [6(E)-Octadecenoic acid], the remaining activity at 1.25 µM in test [1] (Well no.=4318) was 105%. For the same compound, the remaining activity at 3.75 µM in test [2] (Well no.=4318) stood at 99.5%.
Turning to `CC/C=C\C/C=C\C/C=C\C/C=C\CCCCC(=O)O` [6(Z), 9(Z), 12(Z), 15(Z)-Octadecatetraenoic acid], the remaining activity at 1.25 µM in test [1] (Well no.=4398) is 101%. The remaining activity at 3.75 µM in test [2] (Well no.=4398) was determined as 97.4%.
On to `CCCCC/C=C\C/C=C\C/C=C\CCCCC(=O)O` [6(Z), 9(Z), 12(Z)-Octadecatrienoic Acid], for which, in test [1] (Well no.=4360), the remaining activity at 1.25 µM stood at 107%. For the same compound, the remaining activity at 3.75 µM in test [2] (Well no.=4360) is 107%.
In the case of `CCCCCCCCCCC/C=C\CCCCC(=O)O` [6(Z)-Octadecenoic acid], in test [1] (Well no.=4316), the remaining activity at 1.25 µM came to 103%. Besides, the remaining activity at 3.75 µM in test [2] (Well no.=4316) was determined as 98.8%.
As for `NC1CCc2cc(O)c(O)cc2C1` (stereo not drawn) [6,7-ADTN hydrobromide], the remaining activity at 1.25 µM in test [1] (Well no.=444) was determined as 101%. The remaining activity at 3.75 µM in test [2] (Well no.=444) turned out to be 104%.
Consider `O=c1cc(-c2ccccc2)oc2cc(O)c(O)cc12` [6,7-Dihydroxyflavone], for which the remaining activity at 1.25 µM in test [1] (Well no.=3441) was determined as 100%. The remaining activity at 3.75 µM in test [2] (Well no.=3441) stood at 98.9%.
As for `Fc1cc(F)c2c(c1)C1C=CCC1C(c1cccnc1)N2` (stereo not drawn) [6,8-difluoro-4-(3-pyridinyl)-3a,4,5,9b-tetrahydro-3H-cyclopenta[c]quinoline], in test [1] (Well no.=5390), the remaining activity at 1.25 µM turned out to be 97.2%. The remaining activity at 3.75 µM in test [2] (Well no.=5390) amounted to 91.3%.
Regarding `CC(=O)N[C@H]1CN2CC[C@H](O)[C@@H]2[C@@H](O)[C@@H]1O` [6-Acetamido-6-deoxy-castanospermine], the remaining activity at 1.25 µM in test [1] (Well no.=3294) is 97.4%. For the same compound, the remaining activity at 3.75 µM in test [2] (Well no.=3294) was 99.3%.
On to `NCCCCCC(=O)O` [6-Aminohexanoic acid], for which, in test [1] (Well no.=6), the remaining activity at 1.25 µM was 101%. Moreover, in test [2] (Well no.=6), the remaining activity at 3.75 µM was determined as 102%.
`C[C@H](O)[C@H](O)c1cnc2nc(N)[nH]c(=O)c2n1` [6-Biopterin]: the remaining activity at 1.25 µM in test [1] (Well no.=6447) was found to be 99.6%. The remaining activity at 3.75 µM in test [2] (Well no.=6447) stood at 95.8%.
For `COc1cc2c(CCNC(C)=O)c[nH]c2cc1Cl` [6-Chloromelatonin], in test [1] (Well no.=89), the remaining activity at 1.25 µM was determined as 98.5%. Moreover, the remaining activity at 3.75 µM in test [2] (Well no.=89) stood at 101%.
On to `NCC(O)c1cc(O)c(O)cc1F` (stereo not drawn) [6-Fluoronorepinephrine hydrochloride], for which the remaining activity at 1.25 µM in test [1] (Well no.=227) stood at 97.7%. Also, the remaining activity at 3.75 µM in test [2] (Well no.=227) was 97%.
Consider `O=Cc1c2[nH]c3ccccc3c2cc2[nH]c3ccccc3c12` [6-Formylindolo [3,2-B] carbazole], for which the remaining activity at 1.25 µM in test [1] (Well no.=4507) worked out at 90.7%. For the same compound, the remaining activity at 3.75 µM in test [2] (Well no.=4507) was determined as 97.6%.
With `O=c1cc(-c2ccccc2)oc2ccc(O)cc12` [6-Hydroxyflavone (6-HF)], the remaining activity at 1.25 µM in test [1] (Well no.=8104) was found to be 98.9%. For the same compound, the remaining activity at 3.75 µM in test [2] (Well no.=8104) was 98.5%.
For `COc1cc2c(CCNC(C)=O)c[nH]c2cc1O` [6-Hydroxymelatonin], in test [1] (Well no.=654), the remaining activity at 1.25 µM is 95.9%. In test [2] (Well no.=654), the remaining activity at 3.75 µM came out at 96.7%.
Regarding `CN1[C@@H]2CC(=O)C[C@H]1[C@H](O)C2` [6-Hydroxytropinone], the remaining activity at 1.25 µM in test [1] (Well no.=3639) came to 99.8%. Besides, the remaining activity at 3.75 µM in test [2] (Well no.=3639) worked out at 104%.
Regarding `CCCCCCCCC(=O)NCc1cc(OC)c(O)cc1I` [6-Iodonordihydrocapsaicin], the remaining activity at 1.25 µM in test [1] (Well no.=5963) was 95.9%. In addition, the remaining activity at 3.75 µM in test [2] (Well no.=5963) worked out at 99%.
With `CC(C)CCC[C@@H](C)[C@H]1CC[C@H]2[C@@H]3CC(=O)[C@H]4C[C@@H](O)CC[C@]4(C)[C@H]3CC[C@]12C` [6-Ketocholestanol], in test [1] (Well no.=6021), the remaining activity at 1.25 µM worked out at 94.9%. Besides, in test [2] (Well no.=6021), the remaining activity at 3.75 µM worked out at 86.6%.
On to `Cc1cccc(C#Cc2ccccc2)n1` [6-Methyl-2-(phenylethynyl)pyridine hydrochloride], for which the remaining activity at 1.25 µM in test [1] (Well no.=834) turned out to be 98.2%. In addition, in test [2] (Well no.=834), the remaining activity at 3.75 µM is 95%.
Take `O=Nc1ccc2oc(=O)ccc2c1` [6-Nitroso-1,2-benzopyrone]: the remaining activity at 1.25 µM in test [1] (Well no.=1099) turned out to be 95.7%. Moreover, the remaining activity at 3.75 µM in test [2] (Well no.=1099) is 104%.
Consider `OC[C@H]1O[C@@H](n2cnc3c(=S)nc[nH]c32)[C@H](O)[C@@H]1O` [6-_Thioinosine], for which the remaining activity at 1.25 µM in test [1] (Well no.=7724) was 99.8%. In test [2] (Well no.=7724), the remaining activity at 3.75 µM amounted to 96.5%.
As to `Cc1ccc2c(c1)C1(CCN(CCc3nc(-c4ccccc4)oc3C)CC1)OC(=O)N2` [6-methyl-1'-(2-(5-methyl-2-phenyloxazol-4-yl)ethyl)spiro[benzo[d][1,3]oxazine-4,4'-piperidin]-2(1H)-one], the remaining activity at 1.25 µM in test [1] (Well no.=5915) amounted to 93.5%. In addition, in test [2] (Well no.=5915), the remaining activity at 3.75 µM is 93.6%.
Consider `Nc1nc2ccccc2c2ccccc12` [6-phenanthridinamine], for which the remaining activity at 1.25 µM in test [1] (Well no.=5389) came to 106%. Also, the remaining activity at 3.75 µM in test [2] (Well no.=5389) was found to be 102%.
For the compound `CN(C)CCSSCCNC(=O)C1CCN(C(=O)CSc2ccc(Cl)cc2)CC1` [6H05 (trifluoroacetate)], the remaining activity at 1.25 µM in test [1] (Well no.=6658) came to 103%. Also, in test [2] (Well no.=6658), the remaining activity at 3.75 µM turned out to be 106%.
Take `CCCCCCCCCCC/C=C/CCCCCC(=O)O` [7(E)-Nonadecenoic acid]: the remaining activity at 1.25 µM in test [1] (Well no.=4366) was 105%. Moreover, the remaining activity at 3.75 µM in test [2] (Well no.=4366) turned out to be 97.4%.
For the compound `CCCCCCCCCCC/C=C\CCCCCC(=O)O` [7(Z)-Nonadecenoic acid], the remaining activity at 1.25 µM in test [1] (Well no.=4364) came to 107%. The remaining activity at 3.75 µM in test [2] (Well no.=4364) is 100%.
For `CCCCCCCCCCC/C=C\C(C)(C)/C=C\CCCC(=O)O` [7,7-Dimethyleicosadienoic acid], the remaining activity at 1.25 µM came out at 101% in test [1] (Well no.=4313) and 100% in test [1] (Well no.=4412). In addition, the remaining activity at 3.75 µM worked out at 99.2% in test [2] (Well no.=4313) and 101% in test [2] (Well no.=4412).
